For 17 compounds, pest or weed control results are on record in patent US8461181B2, “Fused heterocyclic compound and use thereof” (Sumitomo Chemical Company, Ltd., priority 2009, dated 2013).

Structures are written as SMILES.

Holding throughout (type): in vivo
In assay [1] the test system is Aphis gossypii. Put plainly: Test Example 2: foot drench of cucumber seedling on urethane mat, Aphis gossypii. The following applies: soil, 168 h, 5 ml drench at foot of cucumber seedling on urethane mat, inoculated one day after treatment, checked seven days after. How it is done:
The formulations of the present active compounds (4), (5), (8), (9), (11), (12), (14), (15), (17), (20), (35) to (45), (48) to (51), (54) to (56), (206), (209) and (211) to (213) obtained by Formulation Example 5 were diluted with water so that the active ingredient concentration was 500 ppm, to prepare diluted solutions for test. Separately, a cucumber seedling (second true leaf spreading stage) planted on a urethane mat was drenched at its foot with each 5 ml of the diluted solutions, and one day after treatment, the cucumber leaf surface was inoculated with 30 Aphis gossypii (whole stage). Further seven days after, the number of insect of living Aphis gossypii […] on the leaves of this cucumber was checked, and the control value was calculated according to the following formula. Control value (%)={1-(Cb×Tai)/(Cai×Tb)}×100 Letters in the formula represent the following meanings. Cb: the number of insect before treatment on non-treated district Cai: the number of insect in observation on non-treated district Tb: the number of insect before treatment on treated district Tai: the number of insect in observation on treated district

The test system of assay [2] is Nilaparvata lugens. Description: Test Example 9: foot drench of rice seedling, twenty first instar larvae of Nilaparvata lugens. The following applies: soil, 144 h, 5 ml drench at foot of rice seedling, kept 7 days, twenty first instar larvae released, further 6 days. How it is done:
The formulations of the present active compounds (6), (7), (18), (22), (25), (30), (33), (46), (47), (53), (101) to (103), (106), (121) to (124), (126) to (128), (135), (139), (216) and (217) obtained by Formulation Example 5 were diluted with water so that the active ingredient concentration was 500 ppm, to prepare diluted solutions for test. Separately, a rice seedling (2 weeks after sowing, second leaf spreading stage) planted on a plastic cup was drenched at its foot with each 5 ml of the diluted solutions, and kept in a greenhouse of 25° C. for 7 days. Twenty first instar larvae of Nilaparvata lugens were released, and further kept in the greenhouse for 6 days, then, the number of insect of living Nilaparvata lugens […] on rice was checked, and the control value was calculated according to the following formula. Control value (%)={1-(Cb×Tai)/(Cai×Tb)}×100 Letters in the formula represent the following meanings. Cb: the number of insect before treatment on non-treated district Cai: the number of insect in observation on non-treated district Tb: the number of insect before treatment on treated district Tai: the number of insect in observation on treated district

Assay [3] relates to Nilaparvata lugens. Description: Test Example 8: spray on rice seedling, 20 first instar larvae of Nilaparvata lugens. The following applies: 144 h, 10 ml sprayed on rice seedling, 20 first instar larvae released, 6 days at 25° C. As for the experimental part: The formulations of the present active compounds (6), (7), (18), (21), (24), (25), (28) to (30), (32), (46), (52), (101) to (103), (105) to (107), (111), (112), (115), (119) to (124), (126) to (130), (133) to (135), (139), (142), (144) to (146), (149) to (151), (153), (154), (216) and (217) obtained by Formulation Example 5 were diluted with water so that the active ingredient concentration was 500 ppm, to prepare spray solutions for test. Separately, on a rice seedling (2 weeks after sowing, second leaf spreading stage) planted on a plastic cup, the drug solutions for test prepared as described above were sprayed each in an amount of 10 ml. After drying of the drug solution sprayed on rice, 20 first instar larvae of Nilaparvata lugens were released, and kept in a greenhouse of 25° C. for 6 days. Thereafter, the number of Nilaparvata lugens […] on rice was checked, and the control value was calculated according to the following formula. Control value (%)={1-(Cb×Tai)/(Cai×Tb)}×100 Letters in the formula represent the following meanings. Cb: the number of insect before treatment on non-treated district Cai: the number of insect in observation on non-treated district Tb: the number of insect before treatment on treated district Tai: the number of insect in observation on treated district

For assay [4], the system named is Aphis gossypii. Description: Test Example 3: root immersion of cucumber seedling, Aphis gossypii. The following applies: 168 h, cucumber root part immersed in 5 ml, inoculated one day after treatment, checked seven days after. As for the experimental part: The formulations of the present active compounds (18), (19), (21), (22), (24), (25), (28), (31) to (34), (46), (47), (52), (53), (101) to (104), (106) to (108), (112) to (114), (117), (118), (122), (123), (126), (128), (129), (133), (134), (138), (144), (153) to (155) and (157) obtained by Formulation Example 5 were diluted with water so that the active ingredient concentration was 500 ppm, to prepare diluted solutions for test. A root part of a cucumber seedling (first true leaf spreading stage) from which soil had been washed off was immersed in 5 ml of this diluted solution, and one day after treatment, the cucumber leaf surface was inoculated with 30 Aphis gossypii (whole stage). Further seven days after, the number of insect of living Aphis gossypii […] on the leaves of this cucumber was checked, and the control value was calculated according to the following formula. Control value (%)={1-(Cb×Tai)/(Cai×Tb)}×100 Letters in the formula represent the following meanings. Cb: the number of insect before treatment on non-treated district Cai: the number of insect in observation on non-treated district Tb: the number of insect before treatment on treated district Tai: the number of insect in observation on treated district

Assay [5] concerns Aphis gossypii. Put plainly: Test Example 4: foot drench of cucumber seedling in plastic cup, inoculation after 7 days, Aphis gossypii. The following applies: soil, 144 h, 5 ml drench at foot of cucumber seedling in plastic cup, kept 7 days at 25° C., inoculated, further 6 days. As for the experimental part:
The formulations of the present active compounds (3) to (7), (17), (19), (20), (22), (29) to (31), (35) to (37), (39), (41) to (45), (47) to (56), (101), (106), (121) to (123), (128), (131), (137), (139), (143), (145), (147), (211) to (213), (216) and (217) obtained by Formulation Example 5 were diluted with water so that the active ingredient concentration was 500 ppm, to prepare diluted solutions for test. Separately, a cucumber seedling (second true leaf spreading stage) planted on a plastic cup was drenched at its foot with each 5 ml of the diluted solutions, and kept in a greenhouse of 25° C. for 7 days. The cucumber leaf surface was inoculated with 30 Aphis gossypii (whole stage), and further kept in the greenhouse for 6 days, then, the number of insect of living Aphis gossypii […] on the leaves of this cucumber was checked, and the control value was calculated according to the following formula. Control value (%)={1-(Cb×Tai)/(Cai×Tb)}×100 Letters in the formula represent the following meanings. Cb: the number of insect before treatment on non-treated district Cai: the number of insect in observation on non-treated district Tb: the number of insect before treatment on treated district Tai: the number of insect in observation on treated district

Turning to `Cn1c(-c2ccncc2F)nc2cc(C(F)(F)F)ccc21` [present active compound 4, 2-(3-fluoropyridin-4-yl)-1-methyl-5-trifluoromethyl-1H-benzimidazole], in the assay with Aphis gossypii [1], the pest or weed control – broadly, the degree to which the test organism was suppressed or injured, in per cent – at 500 ppm is at least 90%.
The same measure, in the same setting: then `Cn1c(-c2ccncc2Cl)nc2cc(C(F)(F)F)ccc21` [present active compound 5, 2-(3-chloropyridin-4-yl)-1-methyl-5-trifluoromethyl-1H-benzimidazole], with at least 90%.
Consider `Cc1cnccc1-c1nc2cc(C(F)(F)F)ccc2n1C` [present active compound 6, 1-methyl-2-(3-methylpyridin-4-yl)-5-trifluoromethyl-1H-benzimidazole], for which the pest or weed control at 500 ppm with Nilaparvata lugens [2] and in the assay with Nilaparvata lugens [3] was at least 90% throughout.
`CCc1cnccc1-c1nc2cc(C(F)(F)F)ccc2n1C` [present active compound 7, 2-(3-ethylpyridin-4-yl)-1-methyl-5-trifluoromethyl-1H-benzimidazole]: the pest or weed control at 500 ppm with Nilaparvata lugens [2] and in the assay with Nilaparvata lugens [3] was at least 90% throughout.
On to `COc1cnccc1-c1nc2cc(C(F)(F)F)ccc2n1C` [present active compound 8, 2-(3-methoxypyridin-4-yl)-1-methyl-5-trifluoromethyl-1H-benzimidazole], for which, in the assay with Aphis gossypii [1], the pest or weed control at 500 ppm was at least 90%.
Same read-out and setting: then `CCOc1cnccc1-c1nc2cc(C(F)(F)F)ccc2n1C` [present active compound 9, 2-(3-ethoxypyridin-4-yl)-1-methyl-5-trifluoromethyl-1H-benzimidazole], with at least 90%; and `Cn1c(-c2ccncc2OC(C)(C)C)nc2cc(C(F)(F)F)ccc21` [present active compound 12, 2-(3-tert-butoxypyridin-4-yl)-1-methyl-5-trifluoromethyl-1H-benzimidazole], with at least 90%.
On the same count and under the same terms, then `Cn1c(-c2ccncc2OCC(F)F)nc2cc(C(F)(F)F)ccc21` [present active compound 14, 2-[3-(2,2-difluoroethoxy)-pyridin-4-yl]-1-methyl-5-trifluoromethyl-1H-benzimidazole], with at least 90%.
As to `Cn1c(-c2ccncc2[S+](C)[O-])nc2cc(C(F)(F)F)ccc21` (stereo not drawn) [present active compound 18, 2-(3-methanesulfinylpyridin-4-yl)-1-methyl-5-trifluoromethyl-1H-benzimidazole], the pest or weed control at 500 ppm with Aphis gossypii [4], with Nilaparvata lugens [2] and in the assay on Nilaparvata lugens [3] was at least 90% in each case.
For the compound `CCS(=O)(=O)c1cnccc1-c1nc2cc(C(F)(F)F)ccc2n1C` [present active compound 22, 2-(3-ethanesulfonylpyridin-4-yl)-1-methyl-5-trifluoromethyl-1H-benzimidazole], the pest or weed control at 500 ppm in the assay with Aphis gossypii [4], in the assay on Aphis gossypii [5] and in the assay with Nilaparvata lugens [2] was at least 90% throughout.
As for `COCCOc1cnccc1-c1nc2cc(C(F)(F)F)cnc2n1C` [present active compound 46, 2-[3-(2-methoxyethoxy)-pyridin-4-yl]-3-methyl-6-trifluoromethyl-3H-imidazo[4,5-b]pyridine], the pest or weed control at 500 ppm in the assay with Aphis gossypii [4], in the assay on Nilaparvata lugens [2] and with Nilaparvata lugens [3] was at least 90% each time.
For the compound `CCOCCOc1cnccc1-c1nc2cc(C(F)(F)F)cnc2n1C` [present active compound 47, 2-[3-(2-ethoxyethoxy)-pyridin-4-yl]-3-methyl-6-trifluoromethyl-3H-imidazo[4,5-b]pyridine], the pest or weed control at 500 ppm with Aphis gossypii [4] and in the assay with Nilaparvata lugens [2] was at least 90% each time.
With `CCS(=O)(=O)c1cnccc1-c1nc2cc(C(F)(F)F)cnc2n1C` [present active compound 53, 2-(3-ethanesulfonylpyridin-4-yl)-3-methyl-6-trifluoromethyl-3H-imidazo[4,5-b]pyridine], the pest or weed control at 500 ppm with Aphis gossypii [4] and with Nilaparvata lugens [2] was at least 90% in each case.
As for `C#CCSc1cnccc1-c1nc2cc(C(F)(F)F)cnc2n1C` [present active compound 135], the pest or weed control at 500 ppm in the assay with Nilaparvata lugens [2] is at least 90%.
For the compound `CN(C)C(=O)c1cnccc1-c1nc2cc(C(F)(F)F)cnc2n1C` [present active compound 139], the pest or weed control at 500 ppm with Aphis gossypii [5], with Nilaparvata lugens [2] and in the assay with Nilaparvata lugens [3] was at least 90% each time.
For `Cc1cnccc1-c1nc2cc(C(F)(F)F)cnc2n1C` [present active compound 216, 3-methyl-2-(3-methylpyridin-4-yl-)-6-trifluoromethyl-3H-imidazo[4,5-b]pyridine], the pest or weed control at 500 ppm in the assay on Aphis gossypii [5], with Nilaparvata lugens [2] and in the assay with Nilaparvata lugens [3] was at least 90% throughout.
As to `CCc1cnccc1-c1nc2cc(C(F)(F)F)cnc2n1C` [present active compound 217, 2-(3-ethylpyridin-4-yl-)-3-methyl-6-trifluoromethyl-3H-imidazo[4,5-b]pyridine], the pest or weed control at 500 ppm in the assay with Aphis gossypii [5], in the assay on Nilaparvata lugens [2] and with Nilaparvata lugens [3] was at least 90% in each case.
